Test results from patent publication US20150231236A1, “METHODS FOR TREATING PATIENTS WITH HYPERCHOLESTEROLEMIA THAT IS NOT ADEQUATELY CONTROLLED BY MODERATE-DOSE STATIN THERAPY” (Regeneron Pharmaceuticals, Inc., priority 2014, published 2015).

Tested on: patients with hypercholesterolemia at high CV risk not adequately controlled with atorvastatin (20 mg or 40 mg)
Assay: Example 2: randomized, double-blind trial, lipid efficacy of mAb316P add-on to atorvastatin vs EZE add-on, atorvastatin dose doubling or switch to rosuvastatin
Assay type: in vivo, human
Conditions: for LDL-C W24 % change from baseline, LS mean (SE): ITT population, treatment arm as labelled; for LDL-C W24 % change from baseline, LS mean (SE) / reduced LDL-C levels by / Proportion of Patients Reaching LDL-C goal (%): week 24; for reduced LDL-C levels by: add-on mAb316P; for Proportion of Patients Reaching LDL-C goal (%): calculated LDL-C <70 mg/dL very high risk or <100 mg/dL high risk, combined estimate
Experimental: The present study was a randomized, double-blind, active-comparator, parallel-group study in patients at high CV risk with non-FH or heFH who are not adequately controlled with atorvastatin (20 mg or 40 mg) with or without other lipid-modifying therapy (LMT) (excluding EZE). The study design is illustrated in FIG. 1. Patients who entered the study were taking either atorvastatin 20 mg or atorvastatin 40 mg. The former patients were randomized to 1 of 3 treatment arms (arms 1 to 3); the latter patients were randomized to 1 of 4 treatment arms (arms 4 to 7). The treatment arms are as follows:
(1) mAb316P+atorvastatin 20 mg+placebo-EZE; (2) Placebo-mAb316P+atorvastatin 40 mg+placebo-EZE; and (3) Placebo-mAb316P+atorvastatin 20 mg+EZE 10 mg.
(4) mAb316P+atorvastatin 40 mg+placebo-EZE; (5) Placebo-mAb316P+atorvastatin 80 mg+placebo-EZE; (6). Placebo-mAb316P+rosuvastatin 40 mg+placebo-EZE; and (7) Placebo-mAb316P+atorvastatin 40 mg+EZE 10 mg.
(B) a double-blind treatment period of 24 weeks. Each patient received a SC injection Q2W (mAb316P or placebo-mAb316P) and was administered (or instructed to take) 2 oral blinded medications daily (a statin [atorvastatin or rosuvastatin] and EZE or placebo-EZE). The first injection of mAb316P or placebo-mAb316P was administered at the clinical site on day 1, after study assessments were completed, and as soon as possible after the patient was randomized into the study. The patient/caregiver administered subsequent injections outside of the clinic according to the dosing schedule. On days where the clinic study visit coincided with dosing, the dose of study drugs (injectable and oral) were administered after all study assessments had been performed and all laboratory samples collected. The last dose of mAb316P or placebo-mAb316P was administered at week 22. The last dose of daily oral study drugs was administered at week 24. At week 12, based on their baseline CV risk, certain patients randomized to mAb316P in a blinded manner, had their dose increased as follows:
Each patient received a subcutaneous (SC) injection once every two weeks (Q2W) (mAb316P or placebo-mAb316P) and took 2 oral blinded medications daily (a statin [atorvastatin or rosuvastatin] and EZE or placebo-EZE).
The injectable study treatment was a single SC injection of 1 mL for a 75 mg or 150 mg dose of mAb316P or placebo-mAb316P provided in an auto-injector, administered in the abdomen, thigh, or outer area of the upper arm. The first injection of study drug was administered at the clinical site, as soon as possible after the patient was randomized into the study. The patient was monitored at the clinical site for at least 30 minutes following the first injection. The patient/caregiver administered subsequent injections outside of the clinic, according to the dosing schedule. On days where the clinic study visit coincided with dosing, the dose of study drug was administered after all study assessments have been performed and all laboratory samples collected.
The dose of mAb316P was increased, in a blinded manner, from 75 mg to 150 mg SC Q2W, starting at week 12, based on baseline CV risk in the following circumstances:
The primary efficacy endpoint was the percent change in calculated LDL-C from baseline to week 24, which is defined as: 100× (calculated LDL-C value at week 24−calculated LDL-C value at baseline)/calculated LDL-C value at baseline. The baseline calculated LDL-C value was the last LDL-C level obtained before the first double-blind study drug injection. The calculated LDL-C at week 24 will be the LDL-C level obtained within the week 24 analysis window and during the main efficacy period. The main efficacy period was defined as the time from the first double-blind study drug injection up to 21 days after the last double-blind study drug injection or up to the upper limit of the week 24 analysis window, whichever comes first.
Total-C, HDL-C, TG, ApoB, ApoA-1, and Lp (a) were directly measured by a central laboratory. […]

CC(C)c1c(C(=O)Nc2ccccc2)c(-c2ccccc2)c(-c2ccc(F)cc2)n1CC[C@@H](O)C[C@@H](O)CC(=O)O [atorvastatin, reference compound]
LDL-C W24 % change from baseline, LS mean (SE) (listed as ATV 40): −5.0%
LDL-C W24 % change from baseline, LS mean (SE) (listed as ATV 80): −4.8%
Calculated LDL-C LS mean (SE), % Change from Baseline (Week 4, listed as ATV 40): −9.9 (3.4) %
Calculated LDL-C LS mean (SE), Change from Baseline (Week 4, listed as ATV 40): −12.9 (3.6)
Calculated LDL-C LS mean (SE), Value (mg/dL) (Week 4, listed as ATV 40): 88.9 (3.6) mg/dL
Calculated LDL-C LS mean (SE), % Change from Baseline (Week 4, listed as ATV 80): −11.7 (2.7) %
Calculated LDL-C LS mean (SE), Change from Baseline (Week 4, listed as ATV 80): −15.3 (2.9)
Calculated LDL-C LS mean (SE), Value (mg/dL) (Week 4, listed as ATV 80): 93.4 (2.9) mg/dL
Calculated LDL-C LS mean (SE), % Change from Baseline (Week 8, listed as ATV 40): −12.6 (3.8) %
Calculated LDL-C LS mean (SE), Change from Baseline (Week 8, listed as ATV 40): −15.1 (4.1)
Calculated LDL-C LS mean (SE), Value (mg/dL) (Week 8, listed as ATV 40): 86.7 (4.1) mg/dL
Calculated LDL-C LS mean (SE), % Change from Baseline (Week 8, listed as ATV 80): −13.1 (3.1) %
Calculated LDL-C LS mean (SE), Change from Baseline (Week 8, listed as ATV 80): −17.2 (3.2)
Calculated LDL-C LS mean (SE), Value (mg/dL) (Week 8, listed as ATV 80): 91.5 (3.2) mg/dL
Calculated LDL-C LS mean (SE), % Change from Baseline (Week 12, listed as ATV 40): −8.5 (3.9) %
Calculated LDL-C LS mean (SE), Change from Baseline (Week 12, listed as ATV 40): −11.9 (4.3)
Calculated LDL-C LS mean (SE), Value (mg/dL) (Week 12, listed as ATV 40): 89.9 (4.3) mg/dL
Calculated LDL-C LS mean (SE), % Change from Baseline (Week 12, listed as ATV 80): −14.5 (3.2) %
Calculated LDL-C LS mean (SE), Change from Baseline (Week 12, listed as ATV 80): −17.9 (3.4)
Calculated LDL-C LS mean (SE), Value (mg/dL) (Week 12, listed as ATV 80): 90.8 (3.4) mg/dL
Calculated LDL-C LS mean (SE), % Change from Baseline (Week 16, listed as ATV 40): −8.2 (3.9) %
Calculated LDL-C LS mean (SE), Change from Baseline (Week 16, listed as ATV 40): −10.9 (4.3)
Calculated LDL-C LS mean (SE), Value (mg/dL) (Week 16, listed as ATV 40): 90.9 (4.3) mg/dL
Calculated LDL-C LS mean (SE), % Change from Baseline (Week 16, listed as ATV 80): −8.0 (3.4) %
Calculated LDL-C LS mean (SE), Change from Baseline (Week 16, listed as ATV 80): −11.3 (3.8)
Calculated LDL-C LS mean (SE), Value (mg/dL) (Week 16, listed as ATV 80): 97.4 (3.8) mg/dL
Calculated LDL-C LS mean (SE), % Change from Baseline (Week 24, listed as ATV 40): −5.0 (4.6) %
Calculated LDL-C LS mean (SE), Change from Baseline (Week 24, listed as ATV 40): −7.9 (4.7)
Calculated LDL-C LS mean (SE), Value (mg/dL) (Week 24, listed as ATV 40): 93.9 (4.7) mg/dL
Calculated LDL-C LS mean (SE), % Change from Baseline (Week 24, listed as ATV 80): −4.8 (4.2) %
Calculated LDL-C LS mean (SE), Change from Baseline (Week 24, listed as ATV 80): −8.7 (4.5)
Calculated LDL-C LS mean (SE), Value (mg/dL) (Week 24, listed as ATV 80): 100.0 (4.5) mg/dL
reduced LDL-C levels by (atorvastatin 20 mg regimen, add-on ezetimibe or doubling of atorvastatin dose): 5.0%
reduced LDL-C levels by (atorvastatin 40 mg regimen, add-on ezetimibe, doubling of atorvastatin dose or switch to rosuvastatin 40 mg): 4.8%
Proportion of Patients Reaching LDL-C goal (%) (listed as ATV 40): 34.5%
Proportion of Patients Reaching LDL-C goal (%) (listed as ATV 80): 15.4%

mAb316P + ATV 40: treatment arm: mAb316P 75/150 mg Q2W + atorvastatin 40 mg daily
LDL-C W24 % change from baseline, LS mean (SE): −54.0%
Calculated LDL-C LS mean (SE), % Change from Baseline (Week 4): −56.5 (2.8) %
Calculated LDL-C LS mean (SE), Change from Baseline (Week 4): −63.2 (2.9)
Calculated LDL-C LS mean (SE), Value (mg/dL) (Week 4): 45.5 (2.9) mg/dL
Calculated LDL-C LS mean (SE), % Change from Baseline (Week 8): −55.7 (3.2) %
Calculated LDL-C LS mean (SE), Change from Baseline (Week 8): −63.4 (3.3)
Calculated LDL-C LS mean (SE), Value (mg/dL) (Week 8): 45.3 (3.3) mg/dL
Calculated LDL-C LS mean (SE), % Change from Baseline (Week 12): −50.5 (3.2) %
Calculated LDL-C LS mean (SE), Change from Baseline (Week 12): −56.9 (3.5)
Calculated LDL-C LS mean (SE), Value (mg/dL) (Week 12): 51.8 (3.5) mg/dL
Calculated LDL-C LS mean (SE), % Change from Baseline (Week 16): −56.9 (3.5) %
Calculated LDL-C LS mean (SE), Change from Baseline (Week 16): −64.3 (3.9)
Calculated LDL-C LS mean (SE), Value (mg/dL) (Week 16): 44.4 (3.9) mg/dL
Calculated LDL-C LS mean (SE), % Change from Baseline (Week 24): −54.0 (4.3) %
Calculated LDL-C LS mean (SE), Change from Baseline (Week 24): −62.3 (4.6)
Calculated LDL-C LS mean (SE), Value (mg/dL) (Week 24): 46.4 (4.6) mg/dL
Proportion of Patients Reaching LDL-C goal (%): 82.4%

mAb316P + ATV 20: treatment arm: mAb316P 75/150 mg Q2W + atorvastatin 20 mg daily
LDL-C W24 % change from baseline, LS mean (SE): −44.1%
Calculated LDL-C LS mean (SE), % Change from Baseline (Week 4): −53.3 (3.4) %
Calculated LDL-C LS mean (SE), Change from Baseline (Week 4): −55.8 (3.5)
Calculated LDL-C LS mean (SE), Value (mg/dL) (Week 4): 46.0 (3.5) mg/dL
Calculated LDL-C LS mean (SE), % Change from Baseline (Week 8): −51.2 (3.8) %
Calculated LDL-C LS mean (SE), Change from Baseline (Week 8): −51.4 (4.1)
Calculated LDL-C LS mean (SE), Value (mg/dL) (Week 8): 50.4 (4.1) mg/dL
Calculated LDL-C LS mean (SE), % Change from Baseline (Week 12): −48.4 (3.8) %
Calculated LDL-C LS mean (SE), Change from Baseline (Week 12): −49.0 (4.2)
Calculated LDL-C LS mean (SE), Value (mg/dL) (Week 12): 52.8 (4.2) mg/dL
Calculated LDL-C LS mean (SE), % Change from Baseline (Week 16): −53.8 (3.9) %
Calculated LDL-C LS mean (SE), Change from Baseline (Week 16): −54.8 (4.3)
Calculated LDL-C LS mean (SE), Value (mg/dL) (Week 16): 47.0 (4.3) mg/dL
Calculated LDL-C LS mean (SE), % Change from Baseline (Week 24): −44.1 (4.5) %
Calculated LDL-C LS mean (SE), Change from Baseline (Week 24): −47.5 (4.7)
Calculated LDL-C LS mean (SE), Value (mg/dL) (Week 24): 54.3 (4.7) mg/dL
Proportion of Patients Reaching LDL-C goal (%): 87.2%
